Results as given in publication PMC9551036, “A selective and orally bioavailable VHL-recruiting PROTAC achieves SMARCA2 degradation in vivo” (Nature Communications, 2022).
In brackets after ≈: the same amount, converted by molar mass. Several values for one entry are separate records, joined by “and”; a condition that tells them apart may be missing. Equal values may be shown once. Read-outs that look alike come from different tables or passages of the source.

What was measured:
Solubility testing = format: physicochemical; details: for solubility at 24 h: buffer, kinetic from dmso stock
Experimental: Dilution into a 1:1 mixture of acetonitrile and water was used as reference. After 24 h, the incubations were filtrated, and the filtrate was analyzed by LC-UV.

Caco-2 cell monolayer = experiment: Bidirectional permeability measurement in Caco-2 cells; format: in vitro ADME
Experimental: Bidirectional permeability of test compounds across a Caco-2 cell monolayer was measured as described[43] with a modification of preincubation time[44]: Briefly, Caco-2 cells were seeded onto Transwell inserts (#3379, Corning, Wiesbaden, Germany) at a density of 160000 cells/cm^2 and cultured in DMEM (high glucose) containing 10% fetal bovine serum for 14–21 days. Cells were incubated with culture media containing 1 µM test compound for 24 h. […] Samples were taken at different time points for up to 2 h. Test compound in the samples was quantified with LC-MS/MS. To elucidate the role of drug transporter P-gp in the transcellular transport, permeability measurement was performed in the absence and presence of the selective P-gp inhibitor zosuquidar (5 µM final concentration). Apparent permeability coefficients (Papp,AB, Papp,BA) were calculated as follows:1 Papp,AB=Q_AB/C0×s×t 2 Papp,BA=Q_BA/C0×s×t where Q is the amount of compound recovered in the receiver compartment after the incubation time t, C0 the initial compound concentration given to the donor compartment, and s the surface area of the Transwell inserts. Efflux ratio is calculated as the quotient of Papp,BA (mean of duplicate) to Papp,AB (mean of duplicate). […] In addition, Transepithelial electrical resistance (TEER) values were measured for each plate before the permeability assay. All three parameters (efflux of the reference substrates, Papp values of the low permeable compound, and TEER values) were used to ensure the quality of the assays.

[1] = target: VCB: PROTAC: SMARCA4^BD ternary complex (Homo sapiens, UniProt P40337+P51532); experiment: SPR ternary complex measurement, VCB immobilised, 10 µM SMARCA4^BD present; format: binding; parameters: P51532, residues 1448–1569 with additional N-terminal SM residues; His6 (TEV site) (N, cleaved yes); GST (TEV site) (N, cleaved yes); made in house; host or cells: SMARCA4^BD: Escherichia coli BL21(DE3); details: for Kd: SPR; for alpha: cooperativity, SMARCA4, ratio of KD values measured in the same run
Sequence of VCB: PROTAC: SMARCA4^BD ternary complex (P40337 54-213): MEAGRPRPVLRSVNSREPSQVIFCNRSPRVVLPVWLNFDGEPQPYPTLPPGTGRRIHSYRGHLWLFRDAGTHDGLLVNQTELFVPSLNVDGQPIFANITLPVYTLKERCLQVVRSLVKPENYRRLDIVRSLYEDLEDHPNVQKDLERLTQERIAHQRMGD
Sequence of VCB: PROTAC: SMARCA4^BD ternary complex (Q15369 17-112 partner limits assumed): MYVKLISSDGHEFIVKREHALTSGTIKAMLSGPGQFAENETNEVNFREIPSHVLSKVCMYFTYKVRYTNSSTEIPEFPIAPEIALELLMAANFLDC
Sequence of VCB: PROTAC: SMARCA4^BD ternary complex (Q15370 1-104 partner limits assumed): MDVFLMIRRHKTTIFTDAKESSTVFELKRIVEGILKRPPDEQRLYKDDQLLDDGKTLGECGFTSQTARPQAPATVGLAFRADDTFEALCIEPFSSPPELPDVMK
Sequence of VCB: PROTAC: SMARCA4^BD ternary complex (P51532 1448-1569): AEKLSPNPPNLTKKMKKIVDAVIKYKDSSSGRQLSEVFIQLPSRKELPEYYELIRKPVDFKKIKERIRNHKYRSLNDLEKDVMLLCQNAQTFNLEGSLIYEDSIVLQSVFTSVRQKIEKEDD
Experimental: (§1) SPR data were acquired on Biacore 8K or T200 instruments (Cytiva). Target proteins were immobilised at 25 °C on CM5 chips by amine coupling (EDC/NHS, Cytiva) in HBS-P+ running buffer (pH 7.4), containing 2 mM TCEP. […] The reference surface was subsequently deactivated using 1 M ethanolamine. […] Biotinylated VCB was prepared as previously described[27]: in brief, the complex was mixed 1:1 with EZ-Link NHS–PEG4–biotin (Thermo Scientific) and incubated at room temperature for 1 h. Unreacted NHS-biotin was removed using a PD-10 desalting column (Cytiva) into 20 mM HEPES, pH 7.5, 150 mM sodium chloride and 1 mM DTT. The reference surface was generated by deactivating the EDC/NHS-treated surface with 1 M ethanolamine. All interaction experiments were done at 6 °C in running buffer (20 mM TRIS, pH 8.3, 150 mM potassium chloride, 2 mM magnesium chloride, 2 mM TCEP, 0.005% TWEEN 20, 1% dimethyl sulfoxide). For ternary complex measurements, a sensor chip surface with VCB immobilised was used (preparation as described above). Experiments were run in dual-inject mode with 10 µM SMARCA present during the injection and dissociation phase. Sensorgrams from reference surfaces and blank injections were subtracted from the raw data prior to data analysis using Biacore Insight software. Affinity and binding kinetic parameters were determined by global fitting using the 1:1 interaction model with a term for mass-transport included.

[2] = target: VCB: PROTAC: SMARCA2^BD ternary complex (Homo sapiens, UniProt P40337+P51531); experiment: SPR ternary complex measurement, VCB immobilised, 10 µM SMARCA2^BD present; format: binding; parameters: P51531-2, residues 1373-1493 with additional N-terminal SM residues; His6 (TEV site) (N, cleaved yes); GST (TEV site) (N, cleaved yes); made in house; host or cells: SMARCA2^BD: Escherichia coli BL21(DE3); details: for Kd: SPR; for alpha: cooperativity, SMARCA2, ratio of KD values measured in the same run
Sequence of VCB: PROTAC: SMARCA2^BD ternary complex (P40337 54-213): as the sequence (P40337 54-213) above
Sequence of VCB: PROTAC: SMARCA2^BD ternary complex (Q15369 17-112 partner limits assumed): as the sequence (Q15369 17-112 partner limits assumed) above
Sequence of VCB: PROTAC: SMARCA2^BD ternary complex (Q15370 1-104 partner limits assumed): as the sequence (Q15370 1-104 partner limits assumed) above
Sequence of VCB: PROTAC: SMARCA2^BD ternary complex (P51531 1373-1493 isoform P51531-2): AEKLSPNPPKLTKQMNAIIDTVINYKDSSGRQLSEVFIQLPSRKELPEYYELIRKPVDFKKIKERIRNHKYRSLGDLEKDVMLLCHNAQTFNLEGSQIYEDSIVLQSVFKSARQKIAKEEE
Experimental: as §1

[3] = ternary complex with SMARCA4BD, mean ± SD
[4] = ternary complex with SMARCA2BD, mean ± SD
[5] = Modified Caco-2, a to b, + PGPi (Zosuquidar)

Structure (SMILES)	Solubility pH 4.5 (Solubility testing; pH 4.5)	Solubility pH 6.8 (Solubility testing; pH 6.8)	Caco-2 Efflux ratio (Caco-2 cell monolayer; Caco-2)	Caco-2 Pab (Caco-2 cell monolayer; Caco-2)	Caco-2 Pab (Caco-2 cell monolayer; Caco-2, a to b)	Kd [1, 3] [nM]	Kd ([1]; ternary, individual replicates)	alpha [1]	Kd [2, 4] [nM]	Kd ([2]; ternary, individual replicates)	alpha [2]	solubility at 24 h (Solubility testing; pH 4.5, aqueous buffer, pH 4.5, read-out: Solubility pH 4.5) [µg/mL]	solubility at 24 h (Solubility testing; pH 6.8, aqueous buffer, pH 6.8, read-out: Solubility pH 6.8) [µg/mL]	Modified Caco-2 Efflux ratio (Caco-2 cell monolayer; Modified Caco-2)	Modified Caco-2 Pab (Caco-2 cell monolayer; Modified Caco-2)	Modified Caco-2 Pab + PGPi (Zosuquidar) (Caco-2 cell monolayer; [5])	Modified Caco-2 Pba + PGPi (Zosuquidar) (Caco-2 cell monolayer; Modified Caco-2, b to a, + PGPi (Zosuquidar)) [×10⁻⁶ cm/s]	Modified Caco-2 Pab (Caco-2 cell monolayer; Modified Caco-2, a to b)
Cc1ncsc1-c1ccc(CNC(=O)[C@@H]2C[C@@H](O)CN2C(=O)[C@@H](NC(=O)C2(F)CC2)C(C)(C)C)c(OCCCCN2CCC(c3ccc4c(c3)n(C3CCCC3)c3nc(=O)c5c(Br)cccc5n43)CC2)c1 [compound 23]	<1.000 ug/mL	<1.000 ug/mL	26.136 and 26	0.4 10-6 cm/s	4.01e-07 cm/s	84 ± 1	84.3 nM and 82.7 nM and 85 nM	0.2	120 ± 8	116 nM (2×) and 129 nM	0.1	–	–	–	–	–	–	–
Cc1ncsc1-c1ccc([C@H](CCCCN2CCC(c3ccc4c(c3)n(C3CCCC3)c3nc(=O)c5c(Br)cccc5n43)CC2)NC(=O)[C@@H]2C[C@@H](O)CN2C(=O)[C@@H](NC(=O)C2(F)CC2)C(C)(C)C)cc1 [compound 25]	<1.000 ug/mL	<1.000 ug/mL	–	<4 10-6 cm/s	<4.3e-06 cm/s	14 ± 2	12.8 nM and 13.3 nM and 15.6 nM	0.4	36 ± 15	22.7 nM and 51.6 nM and 32.9 nM	0.2	–	–	–	–	–	–	–
Cc1ncsc1-c1ccc([C@H](COCCN2CCC(c3ccc4c(c3)n(C3CCCC3)c3nc(=O)c5c(Br)cccc5n43)CC2)NC(=O)[C@@H]2C[C@@H](O)CN2C(=O)[C@@H](NC(=O)C2(N(C)C)CC2)C(C)(C)C)cc1 [compound 26]	–	–	–	–	<2.7e-06 cm/s	116 ± 16	105 nM and 109 nM and 135 nM	0.7	95 ± 37	64.1 nM and 136 nM and 86.3 nM	0.8	200 (≈ 188 µM)	< 1	–	–	–	–	–
Cc1ncsc1-c1ccc([C@H](COCCCN2CCC(c3ccc4c(c3)n(C3CCCC3)c3nc(=O)c5c(Br)cccc5n43)CC2)NC(=O)[C@@H]2C[C@@H](O)CN2C(=O)[C@@H](NC(=O)C2(F)CC2)C(C)(C)C)cc1 [compound 27]	<1.000 <1.000 ug/mL	<1.000 <1.000 ug/mL	4.167 and 4	5 10-6 cm/s	–	18 ± 1	16.7 nM and 17.5 nM and 19.5 nM	0.7	26	26.7 nM and 25.9 nM and 26.4 nM	0.5	–	–	–	–	–	–	–
Cc1ncsc1-c1ccc([C@H](COC(C)(C)CN2CCC(c3ccc4c(c3)n(C3CCCC3)c3nc(=O)c5c(Br)cccc5n43)CC2)NC(=O)[C@@H]2C[C@@H](O)CN2C(=O)[C@@H](NC(=O)C2(F)CC2)C(C)(C)C)cc1 [compound 28]	–	<1.000 <1.000 <1.000 <1.000 <1.000 ug/mL	–	5 ± 2 10-6 cm/s	–	73 ± 13	63.4 nM and 67.4 nM and 86.9 nM	0.8	120 ± 34	82.7 nM and 149 nM and 127 nM	0.5	–	–	37.037 and >37	<7 10-6 cm/s	11 ×10⁻⁶ cm/s and 13 ×10⁻⁶ cm/s	14	–
Cc1ncsc1-c1ccc([C@H](CC[C@@H](C)CCN2CCC(c3ccc4c(c3)n(C3CCCC3)c3nc(=O)c5c(Br)cccc5n43)CC2)NC(=O)[C@@H]2C[C@@H](O)CN2C(=O)[C@@H](NC(=O)C2(F)CC2)C(C)(C)C)cc1 [compound 29]	<1.000 <1.000 ug/mL	<1.000 <1.000 ug/mL	–	2 ± 0.2 10-6 cm/s	1.9e-06 cm/s and < 1.9e-06 cm/s and 2.4e-06 cm/s	11 ± 1	11.5 nM (2×) and 9.84 nM	1.1	20 ± 4	15.6 nM and 23 nM and 21.9 nM	0.6	–	–	–	–	–	–	–
Cc1ncsc1-c1ccc([C@H](CCC(C)(C)CCN2CCC(c3ccc4c(c3)n(C3CCCC3)c3nc(=O)c5c(Br)cccc5n43)CC2)NC(=O)[C@@H]2C[C@@H](O)CN2C(=O)[C@@H](NC(=O)C2(F)CC2)C(C)(C)C)cc1 [compound 30]	<1.000 ug/mL	<1.000 ug/mL	9.412 No peak area	<0.3 10-6 cm/s	–	45 ± 6	41.2 nM and 41.8 nM and 51.4 nM	0.6	86 ± 22	66.1 nM and 109 nM and 81.8 nM	0.3	–	–	7.333 and 12.000 and 10 ± 3	–	7.2 ×10⁻⁶ cm/s and 8.4 ×10⁻⁶ cm/s	–	4.5e-06 cm/s and 2.5e-06 cm/s
